Reference: paper PMC5889475 (Biochimie Open, 2015)

Molecular target: T1, His-GlNMNAT (GlNMNAT, GlNMNAT-A) (Giardia duodenalis, UniProt A8BW22)
T1 sequence (A8BW22 1-227): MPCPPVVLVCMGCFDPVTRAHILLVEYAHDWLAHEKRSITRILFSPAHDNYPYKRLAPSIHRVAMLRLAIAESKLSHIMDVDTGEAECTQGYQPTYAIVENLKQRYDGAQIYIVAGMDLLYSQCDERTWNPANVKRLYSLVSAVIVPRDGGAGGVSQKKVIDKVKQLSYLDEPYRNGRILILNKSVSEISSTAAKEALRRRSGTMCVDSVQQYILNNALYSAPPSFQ
Test: C18-HPLC of NAAD formation
Assay type: biochemical
Conditions: ATP 10 mM; NAMN 0.25-12 mM

Question: For `O=C([O-])c1ccc[n+]([C@@H]2O[C@H](COP(=O)(O)O)[C@@H](O)[C@H]2O)c1` [NAMN], which “C18-HPLC of NAAD formation” value is on record?
Answer: for NAMN saturation was not observed, implying that the enzyme has low affinity yet detectable
